Results published in PubChem BioAssay AID256 (DTP/NCI, 2004).
Where “and” joins values, the source holds several entries; their conditions need not be identical. Equal values may be shown once. Inconclusive results and toxic doses are left out.

System: CD2F1 mice, L1210 leukemia ip, survival T/C
Experiment: NCI In Vivo Anticancer Drug Screen. Data for tumor model L1210 Leukemia (intraperitoneal) in CD2F1 (CDF1) mice
Conditions: higher = longer survival
In short: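 Mice carrying a transplanted tumor received test compound or vehicle alone. The value is the measurement in the treated group divided by that in the vehicle-treated control group.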

[1] = endpoint: mean survival time, dose: 25.0 mg/kg/injection, schedule: Q01DX009 (ip), vehicle: saline with Tween-80
[2] = endpoint: mean survival time, dose: 50.0 mg/kg/injection, schedule: Q01DX009 (ip), vehicle: saline with Tween-80
[3] = endpoint: mean survival time, dose: 100.0 mg/kg/injection, schedule: Q01DX009 (ip), vehicle: saline with Tween-80
[4] = endpoint: mean survival time, dose: 200.0 mg/kg/injection, schedule: Q01DX009 (ip), vehicle: saline with Tween-80
[5] = endpoint: mean survival time, dose: 200.0 mg/kg/injection, schedule: Q01DX009 (ip), vehicle: saline
[6] = endpoint: mean survival time, dose: 400.0 mg/kg/injection, schedule: Q01DX009 (ip), vehicle: saline with Tween-80
[7] = endpoint: mean survival time, dose: 100.0 mg/kg/injection, schedule: Q01DX001 (ip), vehicle: saline
[8] = endpoint: mean survival time, dose: 200.0 mg/kg/injection, schedule: Q01DX001 (ip), vehicle: saline
[9] = endpoint: mean survival time, dose: 400.0 mg/kg/injection, schedule: Q01DX001 (ip), vehicle: saline
[10] = endpoint: mean survival time, dose: 6.25 mg/kg/injection, schedule: Q01DX009 (ip), vehicle: saline with Tween-80
[11] = endpoint: mean survival time, dose: 12.5 mg/kg/injection, schedule: Q01DX009 (ip), vehicle: saline with Tween-80

ClCCc1cnc[nH]1
T/C (endpoint: mean survival time, dose: 25.0 mg/kg/injection, schedule: Q01DX005 (ip), vehicle: water): 104 % of control
T/C (endpoint: mean survival time, dose: 50.0 mg/kg/injection, schedule: Q01DX005 (ip), vehicle: water): 101 % of control
T/C (endpoint: mean survival time, dose: 100.0 mg/kg/injection, schedule: Q01DX005 (ip), vehicle: water): 105 % of control

N#CCCn1ccc2ccccc21
T/C (endpoint: mean survival time, dose: 100.0 mg/kg/injection, schedule: Q01DX009 (ip), vehicle: other): 98 % of control
T/C (endpoint: mean survival time, dose: 200.0 mg/kg/injection, schedule: Q01DX009 (ip), vehicle: other): 104 % of control
T/C (endpoint: mean survival time, dose: 400.0 mg/kg/injection, schedule: Q01DX009 (ip), vehicle: other): 98 % of control

Nc1nc(/C=C(/O)c2ccccc2)c2ncn(C3OC(CO)C(O)C3O)c2n1 (centres undefined)
T/C (endpoint: mean survival time, dose: 12.5 mg/kg/injection, schedule: Q01DX005 (ip), vehicle: distilled water + Tween-80): 103 % of control
T/C (endpoint: mean survival time, dose: 12.5 mg/kg/injection, schedule: Q01DX009 (ip), vehicle: distilled water + Tween-80): 89 % of control
T/C (endpoint: mean survival time, dose: 25.0 mg/kg/injection, schedule: Q01DX005 (ip), vehicle: distilled water + Tween-80): 114 % of control and 115 % of control
T/C (endpoint: mean survival time, dose: 25.0 mg/kg/injection, schedule: Q01DX009 (ip), vehicle: distilled water + Tween-80): 89 % of control
T/C (endpoint: mean survival time, dose: 50.0 mg/kg/injection, schedule: Q01DX005 (ip), vehicle: distilled water + Tween-80): 120 % of control
T/C (endpoint: mean survival time, dose: 50.0 mg/kg/injection, schedule: Q01DX009 (ip), vehicle: distilled water + Tween-80): 92 % of control
T/C (endpoint: mean survival time, dose: 100.0 mg/kg/injection, schedule: Q01DX005 (ip), vehicle: distilled water + Tween-80): 160 % of control
T/C (endpoint: mean survival time, dose: 100.0 mg/kg/injection, schedule: Q01DX009 (ip), vehicle: distilled water + Tween-80): 102 % of control
T/C (endpoint: mean survival time, dose: 200.0 mg/kg/injection, schedule: Q01DX009 (ip), vehicle: distilled water + Tween-80): 103 % of control
T/C (endpoint: median survival time, dose: 12.5 mg/kg/injection, schedule: Q01DX009 (ip), vehicle: distilled water + Tween-80): 103 % of control
T/C (endpoint: median survival time, dose: 25.0 mg/kg/injection, schedule: Q01DX009 (ip), vehicle: distilled water + Tween-80): 107 % of control
T/C (endpoint: median survival time, dose: 50.0 mg/kg/injection, schedule: Q01DX009 (ip), vehicle: distilled water + Tween-80): 111 % of control
T/C (endpoint: median survival time, dose: 100.0 mg/kg/injection, schedule: Q01DX009 (ip), vehicle: distilled water + Tween-80): 113 % of control

CC(=O)Oc1c(C)[nH]ccc1=O
T/C [1]: 97 % of control
T/C (endpoint: mean survival time, dose: 25.0 mg/kg/injection, schedule: Q01DX009 (ip), vehicle: saline): 100 % of control
T/C [2]: 113 % of control and 107 % of control
T/C (endpoint: mean survival time, dose: 50.0 mg/kg/injection, schedule: Q01DX009 (ip), vehicle: saline): 100 % of control
T/C [3]: 118 % of control and 122 % of control
T/C (endpoint: mean survival time, dose: 100.0 mg/kg/injection, schedule: Q01DX009 (ip), vehicle: saline): 111 % of control
T/C [4]: 150 % of control
T/C [5]: 122 % of control
T/C [6]: 157 % of control

O=C(Nc1ccccc1)C(Cl)Cl
T/C (endpoint: mean survival time, dose: 100.0 mg/kg/injection, schedule: Q04DX003 (ip), vehicle: saline with Tween-80): 103 % of control
T/C (endpoint: mean survival time, dose: 200.0 mg/kg/injection, schedule: Q04DX003 (ip), vehicle: saline with Tween-80): 103 % of control
T/C (endpoint: mean survival time, dose: 400.0 mg/kg/injection, schedule: Q04DX003 (ip), vehicle: saline with Tween-80): 97 % of control

O=C(C=C(C(F)(F)F)C(F)(F)F)c1ccc(F)cc1
T/C (endpoint: mean survival time, dose: 100.0 mg/kg/injection, schedule: Q04DX003 (ip), vehicle: other): 88 % of control

O=C(O)C1CCC(C(=O)O)S1 (centres undefined)
T/C [7]: 96 % of control
T/C [8]: 101 % of control
T/C [9]: 110 % of control

Nc1ncnc2c1c1cnc(=O)[nH]c1n2C1OC(CO)C(O)C1O (centres undefined)
T/C (endpoint: mean survival time, dose: 20.0 mg/kg/injection, schedule: Q01DX005 (ip), vehicle: alkali diluted with water): 97 % of control
T/C (endpoint: mean survival time, dose: 40.0 mg/kg/injection, schedule: Q01DX005 (ip), vehicle: alkali diluted with water): 97 % of control
T/C (endpoint: mean survival time, dose: 80.0 mg/kg/injection, schedule: Q01DX005 (ip), vehicle: alkali diluted with water): 96 % of control
T/C (endpoint: mean survival time, dose: 160.0 mg/kg/injection, schedule: Q01DX005 (ip), vehicle: alkali diluted with water): 97 % of control
T/C (endpoint: mean survival time, dose: 320.0 mg/kg/injection, schedule: Q01DX005 (ip), vehicle: alkali diluted with water): 110 % of control

CCOC(=O)C(=O)Nc1cc(C)ccc1C
T/C [10]: 96 % of control
T/C [11]: 95 % of control
T/C [1]: 98 % of control

OCC1OC(n2cnc3c(SCc4ccccc4)ncnc32)C(O)C1O (centres undefined)
T/C (endpoint: mean survival time, dose: 78.0 mg/kg/injection, schedule: Q01DX001 (ip), vehicle: saline): 104 % of control
T/C (endpoint: mean survival time, dose: 100.0 mg/kg/injection, schedule: Q04DX003 (ip), vehicle: saline): 101 % of control
T/C (endpoint: mean survival time, dose: 117.0 mg/kg/injection, schedule: Q01DX001 (ip), vehicle: saline): 109 % of control
T/C (endpoint: mean survival time, dose: 132.0 mg/kg/injection, schedule: Q01DX009 (ip), vehicle: saline): 176 % of control
T/C [5]: 187 % of control
T/C (endpoint: mean survival time, dose: 200.0 mg/kg/injection, schedule: Q04DX003 (ip), vehicle: saline): 98 % of control
T/C (endpoint: mean survival time, dose: 400.0 mg/kg/injection, schedule: Q01DX001 (ip), vehicle: other): 152 % of control
T/C (endpoint: mean survival time, dose: 400.0 mg/kg/injection, schedule: Q04DX003 (ip), vehicle: saline): 104 % of control

c1ccc(-c2csc3c4ccccc4c4ccccc4[n+]23)cc1
T/C (endpoint: mean survival time, dose: 0.5 mg/kg/injection, schedule: Q01DX009 (ip), vehicle: saline): 104 % of control
T/C (endpoint: mean survival time, dose: 1.0 mg/kg/injection, schedule: Q01DX009 (ip), vehicle: saline): 112 % of control
T/C (endpoint: mean survival time, dose: 2.0 mg/kg/injection, schedule: Q01DX009 (ip), vehicle: saline): 112 % of control
T/C (endpoint: mean survival time, dose: 4.0 mg/kg/injection, schedule: Q01DX009 (ip), vehicle: saline): 106 % of control
T/C (endpoint: mean survival time, dose: 8.0 mg/kg/injection, schedule: Q01DX009 (ip), vehicle: saline): 101 % of control

Cc1ccc(S(=O)(=O)OC2CCCCC2c2cccc(Cl)c2)cc1 (centres undefined)
T/C (endpoint: mean survival time, dose: 75.0 mg/kg/injection, schedule: Q01DX001 (ip), vehicle: other): 92 % of control
T/C (endpoint: mean survival time, dose: 150.0 mg/kg/injection, schedule: Q01DX001 (ip), vehicle: other): 88 % of control
T/C (endpoint: mean survival time, dose: 300.0 mg/kg/injection, schedule: Q01DX001 (ip), vehicle: other): 101 % of control

CN1CN(C2CCCCC2)CSC1=S
T/C [7]: 102 % of control
T/C [3]: 102 % of control
T/C [8]: 100 % of control
T/C [4]: 96 % of control
T/C [9]: 102 % of control
T/C [6]: 106 % of control

CCOc1ccc(Nc2nc(C(Cl)(Cl)Cl)cc(C(Cl)(Cl)Cl)n2)cc1CN(CC)CC
T/C [10]: 101 % of control
T/C (endpoint: mean survival time, dose: 6.25 mg/kg/injection, schedule: Q04DX003 (ip), vehicle: saline with Tween-80): 97 % of control
T/C [11]: 100 % of control
T/C (endpoint: mean survival time, dose: 12.5 mg/kg/injection, schedule: Q04DX003 (ip), vehicle: saline with Tween-80): 101 % of control
T/C [1]: 102 % of control
T/C (endpoint: mean survival time, dose: 25.0 mg/kg/injection, schedule: Q04DX003 (ip), vehicle: saline with Tween-80): 95 % of control

CC1C2C=CC(C2)C1C(=O)O (centres undefined)
T/C [2]: 93 % of control
T/C [3]: 96 % of control and 98 % of control
T/C [4]: 100 % of control and 87 % of control

Nc1nc(N)c2nc(COc3ccc(C(=O)NC(CCC(=O)O)C(=O)O)cc3)cnc2n1 (centres undefined)
T/C (endpoint: mean survival time, dose: 0.38 mg/kg/injection, schedule: Q01DX009 (ip), vehicle: saline with Tween-80): 110 % of control
T/C (endpoint: mean survival time, dose: 0.75 mg/kg/injection, schedule: Q01DX009 (ip), vehicle: saline with Tween-80): 109 % of control
T/C (endpoint: mean survival time, dose: 1.5 mg/kg/injection, schedule: Q01DX009 (ip), vehicle: sodium bicarbonate): 168 % of control
T/C (endpoint: mean survival time, dose: 3.0 mg/kg/injection, schedule: Q01DX009 (ip), vehicle: saline with Tween-80): 95 % of control
T/C (endpoint: mean survival time, dose: 3.0 mg/kg/injection, schedule: Q01DX009 (ip), vehicle: sodium bicarbonate): 179 % of control
T/C (endpoint: mean survival time, dose: 6.0 mg/kg/injection, schedule: Q01DX009 (ip), vehicle: sodium bicarbonate): 157 % of control

CCOC(=O)C(CCC(C)C)C(C)=O (centres undefined)
T/C (endpoint: mean survival time, dose: 100.0 mg/kg/injection, schedule: Q01DX005 (ip), vehicle: saline with Tween-80): 93 % of control
T/C (endpoint: mean survival time, dose: 200.0 mg/kg/injection, schedule: Q01DX005 (ip), vehicle: saline with Tween-80): 103 % of control
T/C (endpoint: mean survival time, dose: 400.0 mg/kg/injection, schedule: Q01DX005 (ip), vehicle: saline with Tween-80): 106 % of control

O=C(O)C1CC(Br)C(Br)CC1C(=O)O (centres undefined)
T/C [3]: 95 % of control
T/C [4]: 100 % of control
T/C [6]: 91 % of control

CCCC(C)(CC)NC(=O)OCC (centres undefined)
T/C [7]: 107 % of control
T/C [8]: 111 % of control
T/C [9]: 111 % of control
